Source: US20260007720A1, “TISSUE REGENERATIVE MULTI-DRUG COCKTAIL AND APPARATUS FOR DELIVERY THEREOF” (priority 2022, published 2026)

Tested on: amputated P2 bone
Test: Multiple treatments targeting chondrogenesis after P2 amputation
Assay type: in vivo, adult CD-1 mice
Conditions: 98 days after amputation
Procedure: Amputation Surgery and Device Attachment and Removal—All experiments were performed under the approval of Tuft's IACUC. All animals were housed in 12-hour light and dark cycles and fed using the recommended feed. Female CD-1 (Charles River Laboratories, Wilmington, MA) and FVB/NJ mice (Jackson Laboratories, Bar Harbor, ME) from 8 to 10 weeks of age were used in the study. Animals were anesthetized with isoflurane administered at 2 to 5% air composition. For single treatment (FIG. 20A), P2 amputation in hindlimb digit 3 was made using a scalpel under a dissection microscope. Immediately after P2 amputation, the dragonskin insert containing silk hydrogel with or without bioactive molecules was then attached to the amputated digit using Skin Tite™ Bioadhesive (Smooth-On, PA). Prior to hydrogel loading, all materials and tools used in the experiment (e.g. surgical tools and device components) were autoclaved to ensure sterility. Devices were attached for various time periods and the amputation digits were then allowed to heal after device removal. For the approach to target active chondrogenesis (FIG. 20B), hindlimb digit 3 was amputated at P2 level and allowed to heal conservatively for 7 to 9 days. […]

Q: How did the P2 bone elongation turn out when insulin-like growth factor-1 [IGF-1] was run?
A: promote P2 bone elongation
